# From patent US10023592B2, “Bromodomain inhibitors” (Celgene Quanticel Research, Inc., priority 2013, dated 2018)
# pIC50: −log10 of the molar value.
# Assays:
# [1] = biological target: BRD4(BD1) (Homo sapiens (Human), UniProt O60885); assay: In vitro enzyme inhibition assay (BRD4 AlphaScreen); assay type: binding; conditions: in vitro enzyme inhibition assay
# How it was run: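 His-tagged BRD4 tested by AlphaScreen for binding of biotinylated H4K5/8/12/16-tetraacetyl peptide. After 20 min at room temperature, streptavidin donor and nickel chelate acceptor beads added (5 μg/mL final each). IC50 determined.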
# [2] = system: NCI-H460, human non-small cell lung cancer cells; assay: Cell-MTS proliferation assay, NCI-H460; assay type: cell-based; conditions: Homo sapiens, Cell-MTS proliferation, 168 hr
# How it was run: (§1)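 Seed: Raji 15,000, HL-60 5,000, NCI-H460 3,000 cells/96-well. +24 hr: 11-pt compound dilution, 100 μM–2.0 nM final. 7 d culture, MTS reagent, read OD490; IC50 vs DMSO, background subtracted.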
# [3] = system: HL-60, human proleukemia cells; assay: Cell-MTS proliferation assay, HL-60; assay type: cell-based; conditions: Homo sapiens, Cell-MTS proliferation, 168 hr
# How it was run: as §1
# [4] = system: Raji, human Burkitts lymphoma cells; assay: Cell-MTS proliferation assay, Raji; assay type: cell-based; conditions: Homo sapiens, Cell-MTS proliferation, 168 hr
# How it was run: as §1
SMILES,pIC50 [1],pIC50 ([2]; NCI-H460),pIC50 ([3]; HL-60),pIC50 ([4]; Raji),pIC50 ([2]; NCI-H460 cells),pIC50 ([3]; HL-60 cells),pIC50 ([4]; Raji cells)
"CCc1ccc(S(C)(=O)=O)cc1-c1ccc(=O)n(C)c1 [Example 312, 5-(2-ethyl-5-methylsulfonylphenyl)-1-methylpyridin-2-one]",5.30 to 6.30,< 5.30,< 5.30,< 5.30,–,–,–
"CCCc1ccc(S(C)(=O)=O)cc1-c1ccc(=O)n(C)c1 [Example 313, 1-methyl-5-(5-methylsulfonyl-2-propylphenyl)pyridin-2-one]",5.30 to 6.30,< 5.30,5.30 to 6.30,< 5.30,–,–,–
"CCS(=O)(=O)Nc1cc(Oc2ccc(F)cc2F)cc(-c2cc(C)c(=O)n(C)c2)c1 [Example 342, N-[3-(2,4-difluorophenoxy)-5-(1,5-dimethyl-6-oxopyridin-3-yl)phenyl]ethanesulfonamide]",> 6.30,5.30 to 6.30,> 6.30,> 6.30,–,–,–
"Cn1cc(-c2cc(OCc3ccccc3OC(F)F)cc(S(C)(=O)=O)c2)c2ccoc2c1=O [Example 348, 4-[3-[[2-(difluoromethoxy)phenyl]methoxy]-5-methylsulfonylphenyl]-6-methylfuro[2,3-c]pyridin-7-one]",> 6.30,5.30 to 6.30,> 6.30,> 6.30,–,–,–
"Cn1cc(-c2cc(OCc3ccccc3)cc(S(C)(=O)=O)c2)c2ccoc2c1=O [Example 349, 6-methyl-4-(3-methylsulfonyl-5-phenylmethoxyphenyl)furo[2,3-c]pyridin-7-one]",> 6.30,< 5.30,> 6.30,> 6.30,–,–,–
"Cn1cc(-c2cc(NS(C)(=O)=O)ccc2Oc2ccc(F)cc2F)n2cncc2c1=O [Example 367, N-[4-(2,4-difluorophenoxy)-3-(7-methyl-8-oxoimidazo[1,5-a]pyrazin-5-yl)phenyl]methanesulfonamide]",> 6.30,< 5.30,> 6.30,> 6.30,–,–,–
"CCS(=O)(=O)c1ccc(OCC2CC2)c(-c2cn(C)c(=O)c3cncn23)c1 [Example 368, 5-[2-(cyclopropylmethoxy)-5-ethylsulfonylphenyl]-7-methylimidazo[1,5-a]pyrazine-8-one]",> 6.30,5.30 to 6.30,> 6.30,> 6.30,–,–,–
"CCS(=O)(=O)Cc1ccc(Oc2ccc(F)cc2F)c(-c2cn(C)c(=O)c3cncn23)c1 [Example 369, 5-[2-(2,4-difluorophenoxy)-5-(ethylsulfonylmethyl)phenyl]-7-methylimidazo[1,5-a]pyrazin-8-one]",> 6.30,< 5.30,> 6.30,5.30 to 6.30,–,–,–
"Cn1cc(-c2cc(CS(C)(=O)=O)ccc2OCC(F)(F)F)n2cncc2c1=O [Example 370, 7-methyl-5-[5-(methylsulfonylmethyl)-2-(2,2,2-trifluoroethoxy)phenyl] imidazo[1,5-a]pyrazin-8-one]",> 6.30,< 5.30,5.30 to 6.30,5.30 to 6.30,–,–,–
"CCS(=O)(=O)Cc1ccc(OCC(F)(F)F)c(-c2cn(C)c(=O)c3cncn23)c1 [Example 371, 5-[5-(ethylsulfonylmethyl)-2-(2,2,2-trifluoroethoxy)phenyl]-7-methylimidazo[1,5-a]pyrazin-8-one]",5.30 to 6.30,< 5.30,5.30 to 6.30,5.30 to 6.30,–,–,–
"Cn1cc(-c2cc(CS(C)(=O)=O)ccc2Oc2ccc(F)cc2F)n2cncc2c1=O [Example 372, 5-[2-(2,4-difluorophenoxy)-5-(methylsulfonylmethyl)phenyl]-7-methylimidazo[1,5-a]pyrazin-8-one]",> 6.30,< 5.30,> 6.30,> 6.30,–,–,–
"CCS(=O)(=O)c1ccc(OC2CCC(F)(F)CC2)c(-c2cn(C)c(=O)c3cncn23)c1 [Example 373, 5-[2-(4,4-difluorocyclohexyl)oxy-5-ethylsulfonylphenyl]-7-methylimidazo[1,5-a]pyrazin-8-one]",> 6.30,–,–,–,< 5.30,> 6.30,5.30 to 6.30
"CCS(=O)(=O)c1ccc(OC2CCCC2)c(-c2cn(C)c(=O)c3cncn23)c1 [Example 374, 5-(2-cyclopentyloxy-5-ethylsulfonylphenyl)-7-methylimidazo[1,5-a]pyrazin-8-one]",> 6.30,–,–,–,< 5.30,> 6.30,> 6.30
"CCS(=O)(=O)c1ccc(Oc2ccc(F)cc2F)c(-c2cn(C)c(=O)c3cncn23)c1 [Example 376, 5-[2-(2,4-difluorophenoxy)-5-ethylsulfonylphenyl]-7-methylimidazo[1,5-a]pyrazin-8-one]",> 6.30,–,–,–,< 5.30,> 6.30,5.30 to 6.30

# Second part, the compound after the results:
pIC50 [1],pIC50 ([2]; NCI-H460),pIC50 ([3]; HL-60),pIC50 ([4]; Raji),pIC50 ([2]; NCI-H460 cells),pIC50 ([3]; HL-60 cells),pIC50 ([4]; Raji cells),SMILES
> 6.30,< 5.30,> 6.30,> 6.30,–,–,–,"CCCc1cnc(NS(=O)(=O)CC)nc1-c1cc(C)c(=O)n(C)c1 [Example 308, N-[4-(1,5-dimethyl-6-oxopyridin-3-yl)-5-propylpyrimidin-2-yl] ethanesulfonamide]"
> 6.30,< 5.30,> 6.30,> 6.30,–,–,–,"CCCCc1cnc(NS(=O)(=O)CC)nc1-c1cn(C)c(=O)c2ccccc12 [Example 309, N-[5-butyl-4-(2-methyl-1-oxoisoquinolin-4-yl)pyrimidin-2-yl] ethanesulfonamide]"
> 6.30,< 5.30,> 6.30,> 6.30,–,–,–,"CCCCc1cnc(NS(=O)(=O)CC)nc1-c1cc(C)c(=O)n(C)c1 [Example 310, N-[5-butyl-4-(1,5-dimethyl-6-oxopyridin-3-yl)pyrimidin-2-yl] ethanesulfonamide]"
> 6.30,< 5.30,> 6.30,> 6.30,–,–,–,"CCS(=O)(=O)Nc1cnc(OCC2CC2)c(-c2cn(C)c(=O)c3ccccc23)c1 [Example 320, N-[6-(cyclopropylmethoxy)-5-(2-methyl-1-oxoisoquinolin-4-yl)pyridin-3-yl]ethanesulfonamide]"
> 6.30,< 5.30,> 6.30,> 6.30,–,–,–,"Cn1cc(-c2cc(S(C)(=O)=O)cnc2OCC2CC2)c2ccccc2c1=O [Example 321, 4-[2-(cyclopropylmethoxy)-5-methylsulfonylpyridin-3-yl]-2-methylisoquinolin-1-one]"
> 6.30,< 5.30,> 6.30,> 6.30,–,–,–,"CCS(=O)(=O)c1cnc(OCC2CC2)c(-c2cn(C)c(=O)c3ccccc23)c1 [Example 322, 4-[2-(cyclopropylmethoxy)-5-ethylsulfonylpyridin-3-yl]-2-methylisoquinolin-1-one]"
> 6.30,< 5.30,> 6.30,5.30 to 6.30,–,–,–,"Cc1cc(-c2cc(OCc3ccccc3)cc(S(C)(=O)=O)c2)cn(C)c1=O [Example 324, 1,3-dimethyl-5-(3-methylsulfonyl-5-phenylmethoxyphenyl)pyridin-2-one]"
> 6.30,< 5.30,5.30 to 6.30,5.30 to 6.30,–,–,–,"Cc1cc(-c2cc(OCC3CC3)cc(S(C)(=O)=O)c2)cn(C)c1=O [Example 325, 5-[3-(cyclopropylmethoxy)-5-methylsulfonylphenyl]-1,3-dimethylpyridin-2-one]"
> 6.30,< 5.30,5.30 to 6.30,5.30 to 6.30,–,–,–,"Cc1cc(-c2cc(OCCc3ccccc3)cc(S(C)(=O)=O)c2)cn(C)c1=O [Example 326, 1,3-dimethyl-5-[3-methylsulfonyl-5-(2-phenylethoxy)phenyl]pyridin-2-one]"
> 6.30,< 5.30,5.30 to 6.30,5.30 to 6.30,–,–,–,"Cc1cc(-c2cc(OCCC3CC3)cc(S(C)(=O)=O)c2)cn(C)c1=O [Example 327, 5-[3-(2-cyclopropylethoxy)-5-methylsulfonylphenyl]-1,3-dimethylpyridin-2-one]"
> 6.30,< 5.30,> 6.30,5.30 to 6.30,–,–,–,"Cc1cccc(C)c1COc1cc(-c2cc(C)c(=O)n(C)c2)cc(S(C)(=O)=O)c1 [Example 331, 5-[3-[(2,6-dimethylphenyl)methoxy]-5-methylsulfonylphenyl]-1,3-dimethylpyridin-2-one]"
> 6.30,< 5.30,> 6.30,5.30 to 6.30,–,–,–,"Cc1cc(-c2cc(OCc3ccccc3OC(F)F)cc(S(C)(=O)=O)c2)cn(C)c1=O [Example 333, 5-[3-[[2-(difluoromethoxy)phenyl]methoxy]-5-methylsulfonylphenyl]-1,3-dimethylpyridin-2-one]"
> 6.30,< 5.30,> 6.30,5.30 to 6.30,–,–,–,"Cc1cc(-c2cc(OCc3ccccc3C#N)cc(S(C)(=O)=O)c2)cn(C)c1=O [Example 334, 2-[[3-(1,5-dimethyl-6-oxopyridin-3-yl)-5-methylsulfonylphenoxy]methyl]benzonitrile]"
> 6.30,< 5.30,> 6.30,5.30 to 6.30,–,–,–,"Cc1cc(-c2cc(OC(C)c3ccccc3)cc(S(C)(=O)=O)c2)cn(C)c1=O (centres unmarked) [Example 336, 1,3-dimethyl-5-[3-methylsulfonyl-5-(1-phenylethoxy)phenyl]pyridin-2-one]"
> 6.30,< 5.30,> 6.30,> 6.30,–,–,–,"Cc1cc(-c2cc(O[C@H](C)c3ccccc3)cc(S(C)(=O)=O)c2)cn(C)c1=O [Example 341, 1,3-dimethyl-5-[3-methylsulfonyl-5-[(1R)-1-phenylethoxy]phenyl]pyridin-2-one]"
